# Assay results as given in US20050232911A1, “Prevention and treatment of metabolic abnormalities associated with excess intramyocellular lipid” (priority 2004, published 2005).
# What was measured:
# [1] = system: whole animal models; conditions: cited from earlier work
# [2] = system: obese Zucker rats; assay: Intramyocellular lipid content (oil red O staining of adductor magnus muscle) after chronic levocarnitine; type: in vivo, rat; conditions: obese Zucker rats with metabolic syndrome; chronic administration, 100 mg/kg bodyweight daily in drinking water or food
# Procedure: Forty-five male obese Zucker rats are obtained at 5 weeks of age (Charles is River) and randomized into three groups of 15 each. Namely, the forty-five male obese Zucker rats are randomized into Control Group A, Control Group B, and L-Carn Group, which each consists of 15 rats. Control Group A and Control Group B receive normal rat chow throughout the study. The 15 Zucker rats in L-Carn Group receive 100 mg/kg bodyweight (BWt) of levocarnitine, daily, in their drinking water or mixed with their food. […] After determining insulin sensitivity, the adductor magnus muscle of the left hind leg is isolated and the anterior and posterior ends tied with 3-O silk and cut outside the ties. The muscle is placed across a wooden stick, slightly wider than the muscle section is long, and tied in place to preserve its normal amount of stretch, then immediately immersed in isopentane cooled in liquid nitrogen. […] The lipid content of the sections is determined by using histochemical staining. One such suitable histochemical staining process includes using lipid-soluble dye to dye respective sections of tissue which are then observed and/or other wise analyzed. […] Ones of the three muscle fiber types are examined and lipid concentrations are determined respectively, pursuant to techniques and methods well known to those skilled in the art. […]
# [3] = system: obese Zucker rats; assay: Renal histology / kidney injury; type: in vivo, rat; conditions: chronic administration, secondary benefit
# Procedure: Forty-five male obese Zucker rats are obtained at 5 weeks of age (Charles is River) and randomized into three groups of 15 each. Namely, the forty-five male obese Zucker rats are randomized into Control Group A, Control Group B, and L-Carn Group, which each consists of 15 rats. Control Group A and Control Group B receive normal rat chow throughout the study. The 15 Zucker rats in L-Carn Group receive 100 mg/kg bodyweight (BWt) of levocarnitine, daily, in their drinking water or mixed with their food. At 6 weeks of age, all groups are placed in metabolic cages for 24-hours to determine baseline protein and creatinine excretion rates, whereby proteinuria can be determined. Systolic blood pressure measurements are obtained by tailcuff plethysmography and a sample of blood is obtained from the tail for determination of fasting plasma creatinine, insulin, blood glucose, triglycerides, and cholesterol. These measurements are subsequently repeated at 12, 18, and 24 weeks of age. […]
# As one example, the PAS stained kidney sections are e.g. observed, examined, studied, and/or analyzed with light microscopy or other suitable means, while considering suitable observational criteria which includes, but is not limited to, a suitable glomerular sclerosis index, a suitable tubulointerstitial index, a suitable mesangial matrix index, and/or others. […]
# [4] = carnitine treatment; cited from earlier work
# [5] = system: Type II Diabetics; conditions: acute administration; cited from earlier work
# [6] = system: obese Zucker rats; assay: Insulin sensitivity by euglycemic-hyperinsulinemic clamp technique; type: in vivo, rat; conditions: chronic administration
# Procedure: Forty-five male obese Zucker rats are obtained at 5 weeks of age (Charles is River) and randomized into three groups of 15 each. Namely, the forty-five male obese Zucker rats are randomized into Control Group A, Control Group B, and L-Carn Group, which each consists of 15 rats. Control Group A and Control Group B receive normal rat chow throughout the study. The 15 Zucker rats in L-Carn Group receive 100 mg/kg bodyweight (BWt) of levocarnitine, daily, in their drinking water or mixed with their food. At 6 weeks of age, all groups are placed in metabolic cages for 24-hours to determine baseline protein and creatinine excretion rates, whereby proteinuria can be determined. […] At 6 weeks of age, the Zucker rats of Control Group A are anesthetized with sodium pentobarbital (50-60 mg/kg BWt intraperitoneally) and insulin sensitivity is determined using the euglycemic-hyperinsulinemic clamp technique, explained elsewhere herein. […] Blood glucose is determined every 15 minutes over a 120 minute baseline period. […] Blood glucose is analyzed every 5 minutes from a catheter in the femoral artery using a glucometer (Freestyle®, test volume required=0.3 μL) and the rate of D-glucose infused is adjusted to maintain plasma glucose at ˜5 mol/L. Whole body insulin sensitivity is calculated at the mean glucose infusion rate during the last 60 minutes of the euglycemic-hyperinsulinemic clamp study. […]
# [7] = system: canine cardiac tissue; conditions: cited from earlier work
# [8] = cited from earlier work
# [9] = system: obese Zucker rat; conditions: treated rats; cited from earlier work
compound,measurement,setting,value
CCOC(=O)[C@@]1(CCCCCCOc2ccc(Cl)cc2)CO1 [Etomoxir],intramyocellular lipid,[1],rise in intramyocellular lipid
same,whole body insulin resistance,[1],increasing degrees of whole body insulin resistance
"C[N+](C)(C)CC(O)CC(=O)[O-] (centres unmarked) [levocarnitine, 3-hydroxy-4-N trimethylammonium butyrate]",intramyocellular lipid concentration,[2],decreases the intramyocellular lipid concentration
same,kidney injury,[3],reduction of kidney injury
same,urinary excretion of long chain carnitine esters,[4],increased urinary excretion of long chain carnitine esters
same,glucose storage and oxidation,[5],both glucose storage and oxidation
same,whole body glucose uptake,[5],significantly increased whole body glucose uptake
same,insulin sensitivity,"[6]; obese Zucker rats with metabolic syndrome, 100 mg/kg bodyweight daily",improves insulin sensitivity
same,systemic insulin concentrations,[6]; obese Zucker rats,lower systemic insulin concentrations
same,elution of long chain acyl CoA esters,[7],ability of levocarnitine to elute long chain acyl CoA esters has been demonstrated
CN(CCOc1ccc(CC2SC(=O)NC2=O)cc1)c1ccccn1 (centres unmarked) [roziglitazone],side effects,[8]; in vivo,weight gain
same,concentration of IMCL,[9],reduce the concentration of IMCL
same,insulin sensitivity,[9],marked improvement in insulin sensitivity
Cc1c(C)c2c(c(C)c1O)CCC(C)(COc1ccc(CC3SC(=O)NC3=O)cc1)O2 (centres unmarked) [troglitazone],hepatotoxicity,[8]; removed from the market,excessive hepatotoxicity
